Laboratory results published in US20210315921A1, “Compounds and Methods for Modifying iAge” (Edifice Health, Inc,, priority 2020, published 2021).

B1: MIG: recombinant mouse MIG (R&D systems, catalog number 492-MM), monokine induced by gamma interferon (protein, UniProt P18340 22-126, looked up)
C-X-C motif chemokine 9: TLVIRNARCSCISTSRGTIHYKSLKDLKQFAPSPNCNKTEIIATLKNGDQTCLDPDSANVKKLMKEWEKKISQKKKQKRGKKHQKNMKNRKPKTPQSRRRSRKTT

Tests used:
estrogen levels = settings: while raising testosterone levels; cited from earlier work
Mouse thoracic aortas = assay: Acetylcholine relaxation of mouse thoracic aortic rings after exposure to MIG (wire myograph); settings: mouse thoracic aortic sections, precontracted with U46619, increasing concentrations of recombinant mouse MIG
Protocol: Mouse thoracic aortas were carefully dissected, and vessels were cut into small rings and mounted on an isometric wire myograph chambers (Danish Myo Technology) and subjected to a normalization protocol. Following normalization, the vessels were incubated with either PBS or different concentrations of recombinant mouse MIG (R&D systems, catalog number 492-MM). A concentration-dependent contraction curve was created by accumulative application of the prostaglandin agonist U46619. Subsequently, concentration-dependent relaxation curves of Acetylcholine were conducted on these vessels and percent relaxation calculated for each dose.

Molecule	reduction of estrogen levels (estrogen levels) [%]	effect on vasorelaxation to Acetylcholine (Mouse thoracic aortas)
N#Cc1ccc(C(c2ccc(C#N)cc2)n2cncn2)cc1 [Letrozole]	98	
B1		dose-dependent effect on vasorelaxation
